Laboratory results published in US20100298141A1, “SUBSTITUTED PYRIDINE N-OXIDE HERBICIDES” (E. I. DU PONT DE NEMOURS AND COMPANY, priority 2007, published 2010).

How the values were obtained:
giant foxtail = assay: Test A pre-/postemergence greenhouse test; assay type: in vivo, Setaria faberi; details: for Plant response rating, Foxtail, Giant: 0 to 100 scale where 0 is no effect and 100 is complete control; for Foxtail, Giant plant response rating: 0 to 100 scale
How it was run: (§1)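 Each test compound, dissolved in a non-phytotoxic solvent mixture with surfactant, was sprayed directly onto seeded soil (loam/sand blend) and, at the same moment, onto seedlings carrying one to two leaves. Around ten greenhouse days later, plants were rated visually for injury relative to untreated controls.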

velvetleaf = assay: Test A pre-/postemergence greenhouse test; assay type: in vivo, Abutilon theophrasti; details: for Plant response rating, Velvetleaf: 0 to 100 scale where 0 is no effect and 100 is complete control; for Velvetleaf plant response rating: 0 to 100 scale
How it was run: as §1

crabgrass = assay: Test A pre-/postemergence greenhouse test; assay type: in vivo, Digitaria sanguinalis; details: for Plant response rating, Crabgrass, Large: 0 to 100 scale where 0 is no effect and 100 is complete control; for Crabgrass, Large plant response rating: 0 to 100 scale
How it was run: as §1

morningglory = assay: Test A pre-/postemergence greenhouse test; assay type: in vivo, Ipomoea spp.; details: for Plant response rating, Morningglory: 0 to 100 scale where 0 is no effect and 100 is complete control; for Morningglory plant response rating: 0 to 100 scale
How it was run: as §1

barnyardgrass [1] = assay: Test A pre-/postemergence greenhouse test; assay type: in vivo, Echinochloa crus-galli; details: for Plant response rating, Barnyardgrass: 0 to 100 scale where 0 is no effect and 100 is complete control; for Barnyardgrass plant response rating: 0 to 100 scale
How it was run: as §1

rice = assay: Test C flooded paddy test; assay type: in vivo, Oryza sativa; details: Flood
How it was run: (§2)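 Under a constant 3 cm flood, test compounds went directly into the paddy water. Following 13 to 15 days of greenhouse growth, treated species and controls were compared by eye.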

redroot pigweed = assay: Test A pre-/postemergence greenhouse test; assay type: in vivo, Amaranthus retroflexus; details: for Plant response rating, Pigweed: 0 to 100 scale where 0 is no effect and 100 is complete control; for Pigweed plant response rating: 0 to 100 scale
How it was run: as §1

corn = assay: Test A pre-/postemergence greenhouse test; assay type: in vivo, Zea mays; details: for Plant response rating, Corn: 0 to 100 scale where 0 is no effect and 100 is complete control; for Corn plant response rating: 0 to 100 scale
How it was run: as §1

duck salad = assay: Test C flooded paddy test; assay type: in vivo, Heteranthera limosa; details: Flood
How it was run: as §2

umbrella sedge = assay: Test C flooded paddy test; assay type: in vivo, Cyperus difformis; details: Flood
How it was run: as §2

wheat = assay: Test A pre-/postemergence greenhouse test; assay type: in vivo, Triticum aestivum; details: for Plant response rating, Wheat: 0 to 100 scale where 0 is no effect and 100 is complete control; for Wheat plant response rating: 0 to 100 scale
How it was run: as §1

barnyardgrass [2] = assay: Test C flooded paddy test; assay type: in vivo, Echinochloa crus-galli; details: Flood
How it was run: as §2

[3] = Postemergence, 500 g ai/ha, 0 is no effect, 100 is complete control
[4] = Preemergence, 125 g ai/ha, 0 no effect, 100 complete control
[5] = Preemergence, 500 g ai/ha, 0 no effect, 100 complete control
[6] = 62 g ai/ha, scale 0 to 100 (0 no effect, 100 complete control)
[7] = 250 g ai/ha, scale 0 to 100, 0 no effect, 100 complete control, 13 to 15 days
[8] = 31 g ai/ha, scale 0 to 100 (0 no effect, 100 complete control)
[9] = 62 g ai/ha, scale 0 to 100, 0 no effect, 100 complete control, 13 to 15 days
[10] = 125 g ai/ha, scale 0 to 100, 0 no effect, 100 complete control, 13 to 15 days

CC(C)c1cc[n+]([O-])c([S+]([O-])Cc2c(C(F)(F)F)nn(C)c2OCC(F)(F)F)c1 (stereo not drawn) [Compound 104]
Plant response rating, Foxtail, Giant (giant foxtail; Postemergence, 125 g ai/ha): 80
Foxtail, Giant plant response rating (giant foxtail; [3]): 90
Foxtail, Giant plant response rating (giant foxtail; [4]): 90
Foxtail, Giant plant response rating (giant foxtail; [5]): 100
Plant response rating, Velvetleaf (velvetleaf; Postemergence, 125 g ai/ha): 50
Velvetleaf plant response rating (velvetleaf; [3]): 70
Velvetleaf plant response rating (velvetleaf; [4]): 40
Velvetleaf plant response rating (velvetleaf; [5]): 80
Plant response rating, Crabgrass, Large (crabgrass; Postemergence, 125 g ai/ha): 40
Crabgrass, Large plant response rating (crabgrass; [3]): 90
Crabgrass, Large plant response rating (crabgrass; [4]): 80
Crabgrass, Large plant response rating (crabgrass; [5]): 100
Plant response rating, Morningglory (morningglory; Postemergence, 125 g ai/ha): 30
Morningglory plant response rating (morningglory; [3]): 100
Morningglory plant response rating (morningglory; [4]): 50
Morningglory plant response rating (morningglory; [5]): 100
Plant response rating, Barnyardgrass (barnyardgrass [1]; Postemergence, 125 g ai/ha): 50
Barnyardgrass plant response rating (barnyardgrass [1]; [3]): 90
Barnyardgrass plant response rating (barnyardgrass [1]; [4]): 40
Barnyardgrass plant response rating (barnyardgrass [1]; [5]): 100
Plant response rating, Rice (rice; [6]): 10
Plant response rating, Rice (rice; [7]): 15
Plant response rating, Pigweed (redroot pigweed; Postemergence, 125 g ai/ha): 50
Pigweed plant response rating (redroot pigweed; [3]): 90
Pigweed plant response rating (redroot pigweed; [4]): 90
Pigweed plant response rating (redroot pigweed; [5]): 100
Plant response rating, Corn (corn; Postemergence, 125 g ai/ha): 50
Corn plant response rating (corn; [3]): 70
Corn plant response rating (corn; [4]): 40
Corn plant response rating (corn; [5]): 70
Plant response rating, Ducksalad (duck salad; [6]): 30
Plant response rating, Ducksalad (duck salad; [7]): 80
Plant response rating, Sedge, Umbrella (umbrella sedge; [6]): 0
Plant response rating, Sedge, Umbrella (umbrella sedge; [7]): 80
Plant response rating, Wheat (wheat; Postemergence, 125 g ai/ha): 50
Wheat plant response rating (wheat; [3]): 60
Wheat plant response rating (wheat; [4]): 50
Wheat plant response rating (wheat; [5]): 100
Plant response rating, Barnyardgrass (barnyardgrass [2]; [6]): 0
Plant response rating, Barnyardgrass (barnyardgrass [2]; [7]): 20

Cc1cc[n+]([O-])c([S+]([O-])Cc2c(C(F)(F)F)nn(C)c2OCC(F)F)c1 (stereo not drawn) [Compound 86]
Plant response rating, Foxtail, Giant (giant foxtail; Postemergence, 125 g ai/ha): 80
Foxtail, Giant plant response rating (giant foxtail; [3]): 90
Foxtail, Giant plant response rating (giant foxtail; [4]): 90
Plant response rating, Foxtail, Giant (giant foxtail; Preemergence, 500 g ai/ha): 100
Plant response rating, Velvetleaf (velvetleaf; Postemergence, 125 g ai/ha): 50
Velvetleaf plant response rating (velvetleaf; [3]): 70
Velvetleaf plant response rating (velvetleaf; [4]): 10
Velvetleaf plant response rating (velvetleaf; [5]): 80
Plant response rating, Crabgrass, Large (crabgrass; Postemergence, 125 g ai/ha): 50
Crabgrass, Large plant response rating (crabgrass; [3]): 90
Crabgrass, Large plant response rating (crabgrass; [4]): 70
Plant response rating, Crabgrass, Large (crabgrass; Preemergence, 500 g ai/ha): 100
Plant response rating, Morningglory (morningglory; Postemergence, 125 g ai/ha): 60
Morningglory plant response rating (morningglory; [3]): 90
Morningglory plant response rating (morningglory; [4]): 50
Plant response rating, Morningglory (morningglory; Preemergence, 500 g ai/ha): 90
Plant response rating, Barnyardgrass (barnyardgrass [1]; Postemergence, 125 g ai/ha): 70
Barnyardgrass plant response rating (barnyardgrass [1]; [3]): 90
Barnyardgrass plant response rating (barnyardgrass [1]; [4]): 70
Plant response rating, Barnyardgrass (barnyardgrass [1]; Preemergence, 500 g ai/ha): 100
Plant response rating, Rice (rice; [6]): 0
Plant response rating, Rice (rice; [7]): 0
Plant response rating, Pigweed (redroot pigweed; Postemergence, 125 g ai/ha): 60
Pigweed plant response rating (redroot pigweed; [3]): 90
Pigweed plant response rating (redroot pigweed; [4]): 90
Plant response rating, Pigweed (redroot pigweed; Preemergence, 500 g ai/ha): 100
Plant response rating, Corn (corn; Postemergence, 125 g ai/ha): 0
Corn plant response rating (corn; [3]): 80
Corn plant response rating (corn; [4]): 20
Plant response rating, Corn (corn; Preemergence, 500 g ai/ha): 50
Plant response rating, Ducksalad (duck salad; [6]): 65
Plant response rating, Ducksalad (duck salad; [7]): 100
Plant response rating, Sedge, Umbrella (umbrella sedge; [6]): 45
Plant response rating, Sedge, Umbrella (umbrella sedge; [7]): 95
Plant response rating, Wheat (wheat; Postemergence, 125 g ai/ha): 50
Wheat plant response rating (wheat; [3]): 70
Wheat plant response rating (wheat; [4]): 70
Wheat plant response rating (wheat; [5]): 90
Plant response rating, Barnyardgrass (barnyardgrass [2]; [6]): 0
Plant response rating, Barnyardgrass (barnyardgrass [2]; [7]): 0

Cn1nc(C(F)(F)F)c(C[S+]([O-])c2c(F)ccc[n+]2[O-])c1Cl (stereo not drawn) [Compound 52]
Plant response rating, Foxtail, Giant (giant foxtail; Postemergence, 125 g ai/ha): 40
Foxtail, Giant plant response rating (giant foxtail; [3]): 60
Foxtail, Giant plant response rating (giant foxtail; [4]): 30
Plant response rating, Foxtail, Giant (giant foxtail; Preemergence, 500 g ai/ha): 90
Plant response rating, Velvetleaf (velvetleaf; Postemergence, 125 g ai/ha): 50
Velvetleaf plant response rating (velvetleaf; [3]): 60
Velvetleaf plant response rating (velvetleaf; [4]): 0
Plant response rating, Velvetleaf (velvetleaf; Preemergence, 500 g ai/ha): 0
Plant response rating, Crabgrass, Large (crabgrass; Postemergence, 125 g ai/ha): 30
Crabgrass, Large plant response rating (crabgrass; [3]): 40
Crabgrass, Large plant response rating (crabgrass; [4]): 0
Plant response rating, Crabgrass, Large (crabgrass; Preemergence, 500 g ai/ha): 40
Plant response rating, Morningglory (morningglory; Postemergence, 125 g ai/ha): 0
Morningglory plant response rating (morningglory; [3]): 20
Morningglory plant response rating (morningglory; [4]): 0
Plant response rating, Morningglory (morningglory; Preemergence, 500 g ai/ha): 40
Plant response rating, Barnyardgrass (barnyardgrass [1]; Postemergence, 125 g ai/ha): 40
Barnyardgrass plant response rating (barnyardgrass [1]; [3]): 70
Barnyardgrass plant response rating (barnyardgrass [1]; [4]): 10
Plant response rating, Barnyardgrass (barnyardgrass [1]; Preemergence, 500 g ai/ha): 80
Plant response rating, Rice (rice; [8]): 0
Plant response rating, Rice (rice; [9]): 0
Plant response rating, Rice (rice; [10]): 0
Plant response rating, Rice (rice; [7]): 0
Plant response rating, Pigweed (redroot pigweed; Postemergence, 125 g ai/ha): 40
Pigweed plant response rating (redroot pigweed; [3]): 70
Plant response rating, Pigweed (redroot pigweed; Preemergence, 500 g ai/ha): 100
Plant response rating, Corn (corn; Postemergence, 125 g ai/ha): 0
Corn plant response rating (corn; [3]): 30
Corn plant response rating (corn; [4]): 0
Plant response rating, Corn (corn; Preemergence, 500 g ai/ha): 0
Plant response rating, Ducksalad (duck salad; [8]): 0
Plant response rating, Ducksalad (duck salad; [9]): 0
Plant response rating, Ducksalad (duck salad; [10]): 40
Plant response rating, Ducksalad (duck salad; [7]): 60
Plant response rating, Sedge, Umbrella (umbrella sedge; [8]): 0
Plant response rating, Sedge, Umbrella (umbrella sedge; [10]): 40
Plant response rating, Sedge, Umbrella (umbrella sedge; [7]): 85
Plant response rating, Wheat (wheat; Postemergence, 125 g ai/ha): 0
Wheat plant response rating (wheat; [3]): 50
Wheat plant response rating (wheat; [4]): 0
Plant response rating, Wheat (wheat; Preemergence, 500 g ai/ha): 0
Plant response rating, Barnyardgrass (barnyardgrass [2]; [8]): 0
Plant response rating, Barnyardgrass (barnyardgrass [2]; [9]): 0
Plant response rating, Barnyardgrass (barnyardgrass [2]; [10]): 0
Plant response rating, Barnyardgrass (barnyardgrass [2]; [7]): 0
